Test results: PMC6804079, “Investigation of 5’-Norcarbocyclic Nucleoside Analogues as Antiprotozoal and Antibacterial Agents” (Molecules, 2019)
Converted amounts (≈) assume the structure as drawn. “And” between values parts separate entries of the source, which are not always exact repeats. Identical values can stand only once.

Assays:
[1] = system: T. b. brucei strain Lister 427 (s427-WT); test: resazurin EC50 assay, T. b. brucei wild-type bloodstream forms; format: cell-based, Trypanosoma brucei brucei; details: Trypanosoma brucei, 72 h, 48 h + 24 h resazurin, average and SEM, at least three determinations, NE = no effect on cell viability at 100 µM
T. brucei B48 = test: microbe, parasite or virus in culture; format: cell-based, Trypanosoma brucei brucei; details: Trypanosoma brucei, read-out: T. Brucei, EC50, B48
T. brucei 2T1 PYR6-5 −/− = test: microbe, parasite or virus in culture; format: cell-based, Trypanosoma brucei brucei; details: Trypanosoma brucei, read-out: T. Brucei, EC50, 2T1 PYR6-5 −/−
Tbb-5FURes = test: microbe, parasite or virus in culture; format: cell-based, Trypanosoma brucei brucei; details: Trypanosoma brucei, read-out: T. Brucei, EC50, Tbb-5FURes
U-937 cells = test: U-937 cytotoxicity (XTT); format: cell-based; details: 6 days incubation
Procedure: The U-937 cells used in the cytotoxicity evaluation were obtained from the AIDS Research and Reference Program. The cells were cultured as indicated by the supplier in RPMI-1640 supplemented with 10% heat inactivated FBS, 1% penicillin/streptomycin solution, and 1% L-glutamine.
U-937 cells plated at 2.5 × 10^3 cells/well in a volume of 100 µL were incubated with serially diluted test compounds in a volume of 100 µL for 6 days at 37 °C/5% CO2. Following the incubation, the cells were stained by adding 50 μL tetrazolium dye XTT (Sigma) solution at 5 mg/mL to determine cellular viability and read at 460/650 nm on a spectrophotometer. Toxicity values were calculated using linear regression analysis.

[2] = system: M. tuberculosis ATCC 25,177 (H37Ra); test: microbe, parasite or virus in culture; format: cell-based, Mycobacterium tuberculosis; details: Mycobacterium tuberculosis, read-out: M. Tuberculosis 25,177 MIC
M. tuberculosis H37Rv = test: microbe, parasite or virus in culture; format: cell-based; details: Mycobacterium tuberculosis, control drugs at critical concentrations
M. tuberculosis MS-115 = test: microbe, parasite or virus in culture; format: cell-based; details: Mycobacterium tuberculosis, MS115, read-out: M. Tuberculosis MS-115 MIC
[3] = system: Trypanosoma and Leishmania; design: method as in PMID 28571825; details: equivalent activity against both pathogens; cited from earlier work
[4] = system: L. mexicana 5FURes (Lmex5FURes); test: microbe, parasite or virus in culture; details: Leishmania mexicana, read-out: L. Mexicana 5FUR, EC50
Procedure: Promastigotes of Leishmania mexicana strain MNY/BZ/62/M379 was cultured in a minimal essential medium, HO-MEMO-MEME, supplemented with 10% FBS and 1% of a penicillin/streptomycin solution (Gibco) as described previously [39] at 25 °C. The L. mexicana 5FURes strain was the same strain but adapted in vitro to high levels of 5FU exactly as described for T. brucei [12].
The resazurin assay for L. mexicana promastigotes was performed exactly as for T. b. brucei, except that incubation times of 72 and 48 h were used before and after the addition of resazurin, respectively, due to the slower metabolism of the dye by Leishmania promastigotes [42].

CCCCCCCCCCCCC#Cc1cn([C@H]2C=C[C@@H](O)C2)c(=O)n([C@H]2C=C[C@@H](O)C2)c1=O [Compound 1, 1-[4′-Hydroxy-2′-cyclopenten-1′-yl]-3-(4′′-hydroxy-2′′-cyclopent-en-1′′-yl)-5-tetradecynyluracil]
EC50 [1]: 8 ± 0.1 µM | EC50 (T. brucei B48): 9 ± 0.1 µM | EC50 (T. brucei 2T1 PYR6-5 −/−): 9.2 ± 0.4 µM | EC50 (Tbb-5FURes): 7.5 ± 0.1 µM | U-937 Cells TC50 (U-937 cells): 66.3 µM | MIC [2]: 250 µM and 117 µg/mL | MIC (M. tuberculosis H37Rv): 50 µg/mL (≈ 107 µM) | MIC (M. tuberculosis MS-115): > 50 µg/mL | EC50 [3]: 8 to 11.9 µM | EC50 [4]: 11.4 ± 0.3 µM
